From PubChem BioAssay (NCI) come the findings set out here.

Structures are written as SMILES.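 Following 48 hours of exposure in 96-well plates, responses at five concentrations were used to interpolate endpoints linearly. TGI marks complete inhibition of growth.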 Where only a bound is given, the exact number is not on record here.

Some test systems named below: UO-31 renal; SF-268 CNS; UACC-257 melanoma; DU-145 prostate; COLO 205 colon; RXF 393 renal; MOLT-4 leukemia; CAKI-1 renal; SK-MEL-28 melanoma; 786-0 renal; NCI-H226 lung; TK-10 renal; KM12 colon; MDA-N; MALME-3M melanoma; U251 CNS; IGROV1 ovarian; CCRF-CEM leukemia; PC-3 prostate; BT-549 breast.
Holding throughout (test): growth of human tumour cells (NCI), 48 h

Take `CN(Cc1cnc2nc(N)nc(N)c2n1)c1ccc(C(=O)NC(CCC(=O)NCCC(P(=O)(O)O)P(=O)(O)O)C(=O)O)cc1` (centres undefined): the TGI in the experiment with UO-31 renal, with SF-268 CNS, in the experiment with UACC-257 melanoma, in the experiment on DU-145 prostate, in the experiment on COLO 205 colon and in the experiment on RXF 393 renal was greater than 100 µM throughout. Moreover, the TGI in the experiment on MOLT-4 leukemia, in the experiment with CAKI-1 renal, in the experiment with SK-MEL-28 melanoma, in the experiment with 786-0 renal, with NCI-H226 lung and with TK-10 renal was greater than 100 µM each time. Moreover, the TGI in the experiment on KM12 colon, in the experiment with MDA-N, in the experiment with MALME-3M melanoma, in the experiment with U251 CNS, in the experiment with IGROV1 ovarian and in the experiment with CCRF-CEM leukemia was greater than 100 µM each time. The TGI with PC-3 prostate and in the experiment with BT-549 breast was greater than 100 µM throughout.
In the case of `Cc1cc(C)n2nc3nc(N)c(C#N)c(-c4ccccc4)c3c2n1`, the TGI with UO-31 renal, in the experiment on SF-268 CNS, with UACC-257 melanoma, in the experiment with DU-145 prostate, with COLO 205 colon and with RXF 393 renal was greater than 100 µM throughout. The TGI in the experiment on MOLT-4 leukemia, in the experiment on CAKI-1 renal, in the experiment on SK-MEL-28 melanoma, in the experiment with 786-0 renal, with NCI-H226 lung and in the experiment with TK-10 renal was greater than 100 µM each time. In addition, the TGI in the experiment with KM12 colon, in the experiment with MDA-N, in the experiment on MALME-3M melanoma, in the experiment with U251 CNS, in the experiment on IGROV1 ovarian and in the experiment with CCRF-CEM leukemia was greater than 100 µM in each case. Also, the TGI in the experiment on PC-3 prostate and in the experiment with BT-549 breast was greater than 100 µM in each case.
For the compound `CNC(C#N)c1ccc(OC)cc1` (centres undefined), the TGI in the experiment with UO-31 renal, with SF-268 CNS, in the experiment with UACC-257 melanoma, with DU-145 prostate, in the experiment with COLO 205 colon and in the experiment on RXF 393 renal was greater than 100 µM throughout. For the same compound, the TGI with MOLT-4 leukemia, with CAKI-1 renal, with SK-MEL-28 melanoma, in the experiment on 786-0 renal, in the experiment with NCI-H226 lung and in the experiment on TK-10 renal was greater than 100 µM in each case. The TGI in the experiment on KM12 colon, with MDA-N, in the experiment on MALME-3M melanoma, in the experiment on U251 CNS, in the experiment with IGROV1 ovarian and with CCRF-CEM leukemia was greater than 100 µM throughout. The TGI in the experiment on PC-3 prostate and in the experiment with BT-549 breast was greater than 100 µM throughout.
Take `CC(=O)O[C@H]1C[C@H]2[C@@H](OC(C)=O)/C=C3\C[C@](C)(C(=O)[C@H](O)C(=C1C)C2(C)C)[C@@H](O)C[C@@H]3OC(=O)[C@H](O)[C@H](c1ccccc1)N(C)C`: the TGI with UO-31 renal, in the experiment with SF-268 CNS, in the experiment on UACC-257 melanoma, with DU-145 prostate, in the experiment with COLO 205 colon and with RXF 393 renal was greater than 100 µM throughout. Moreover, the TGI in the experiment on MOLT-4 leukemia, in the experiment on CAKI-1 renal, in the experiment with SK-MEL-28 melanoma, with 786-0 renal, in the experiment on NCI-H226 lung and in the experiment on TK-10 renal was greater than 100 µM in each case. The TGI with KM12 colon, in the experiment on MDA-N, in the experiment on MALME-3M melanoma, in the experiment with U251 CNS, in the experiment with IGROV1 ovarian and in the experiment on CCRF-CEM leukemia was greater than 100 µM throughout. For the same compound, the TGI in the experiment with PC-3 prostate and in the experiment on BT-549 breast was greater than 100 µM each time.
Take `O=c1cnn(C2OC(C(O)CO)C(O)C2O)c(=O)[nH]1` (centres undefined): the TGI in the experiment with UO-31 renal, in the experiment with SF-268 CNS, in the experiment on UACC-257 melanoma, in the experiment on DU-145 prostate, with COLO 205 colon and with RXF 393 renal was greater than 100 µM in each case. For the same compound, the TGI with MOLT-4 leukemia, in the experiment with CAKI-1 renal, in the experiment on SK-MEL-28 melanoma, in the experiment with 786-0 renal, in the experiment on NCI-H226 lung and in the experiment on TK-10 renal was greater than 100 µM throughout. Besides, the TGI in the experiment on KM12 colon, in the experiment with MDA-N, with MALME-3M melanoma, in the experiment with U251 CNS, in the experiment on IGROV1 ovarian and with CCRF-CEM leukemia was greater than 100 µM throughout. For the same compound, the TGI in the experiment on PC-3 prostate and in the experiment with BT-549 breast was greater than 100 µM each time.
Turning to `COc1cc(/C=C2\C[C@H]3[C@@H]4CCc5cc(O)ccc5[C@H]4CC[C@]3(C)C2=O)cc(OC)c1OC`, the TGI stood at 29.4 µM in the experiment with UO-31 renal; 24 µM in the experiment on SF-268 CNS; 34.1 µM in the experiment with UACC-257 melanoma; 17.5 µM in the experiment with DU-145 prostate; 61.5 µM in the experiment with COLO 205 colon; 24.1 µM in the experiment with RXF 393 renal. The TGI in the experiment on MOLT-4 leukemia is 23.1 µM; in the experiment with CAKI-1 renal, 26.6 µM; in the experiment on SK-MEL-28 melanoma, 24.8 µM; with 786-0 renal it was 57.7 µM; with NCI-H226 lung, 32 µM; with TK-10 renal, 25.1 µM. Moreover, the TGI with KM12 colon was determined as 38.1 µM; with MDA-N, 62.3 µM; with MALME-3M melanoma, 13.4 µM; with U251 CNS it was 38.1 µM; in the experiment on IGROV1 ovarian, 32.8 µM; in the experiment with CCRF-CEM leukemia it was 27.4 µM. Further, the TGI stood at 25.5 µM in the experiment with PC-3 prostate and 42.6 µM in the experiment with BT-549 breast.
As for `C1C2CC3CC1CC(Nc1nc(NC45CC6CC(CC(C6)C4)C5)nc(NC45CC6CC(CC(C6)C4)C5)n1)(C2)C3`, the TGI with UO-31 renal was greater than 100 µM; with SF-268 CNS, greater than 100 µM; with UACC-257 melanoma it was greater than 100 µM; with DU-145 prostate, greater than 100 µM; with COLO 205 colon it was greater than 94.9 µM; with RXF 393 renal it was greater than 100 µM. Also, the TGI with MOLT-4 leukemia is greater than 100 µM; in the experiment with CAKI-1 renal, greater than 100 µM; in the experiment with SK-MEL-28 melanoma it was greater than 93.2 µM; in the experiment with 786-0 renal it was greater than 44.1 µM; in the experiment on NCI-H226 lung, greater than 100 µM; in the experiment with TK-10 renal, greater than 100 µM. In addition, the TGI with KM12 colon is greater than 51.5 µM; in the experiment with MDA-N it was greater than 100 µM; in the experiment with MALME-3M melanoma, greater than 100 µM; in the experiment with U251 CNS, greater than 100 µM; in the experiment on CCRF-CEM leukemia it was greater than 100 µM; in the experiment on PC-3 prostate it was greater than 100 µM. The compound further showed a TGI in the experiment on BT-549 breast greater than 100 µM.
